For data set [1], the system named is human lung cancer cell line H460. The data set is described as follows: MTT reversal assay with mitoxantrone, parental H460 cells. It is filed as cell-based. The note with it: NCI-H460, H460, mitoxantrone alone, read-out: IC50 ± SD of mitoxantrone. The method, then: (§1) The human lung cancer cell line H460, and its MX-selected derivative BCRP-overexpressing cell line, H460/MX20, were used in this study. The KB-C2 cell line was selected by colchicine (Alfa Aesar, Haverhill, MA, USA) (2 μg/mL) with human cervical carcinoma cell line KB-3-1.
(§2) Cytotoxicity tests and reversal experiments were performed using the 3-(4,5-dimethylthiazol-2-yl)-2,5-diphenyltetrazolium bromide (MTT) colorimetric assay. Cells were seeded evenly into 96-well plates. […] To determine the MDR reversal efficacy of the quinazolinamine derivatives, an anticancer drug (mitoxantrone, colchicine, paclitaxel or cisplatin) was added into the designated wells after 2 h pre-incubation with a quinazolinamine derivative or a positive control inhibitor at non-toxic concentrations. After 72 h of drug incubation, the MTT reagent (4 mg/mL) was added into the wells, and then the plates were incubated for an additional 4 h. Subsequently, the supernatant was discarded and 100 µL of dimethyl sulfoxide (DMSO) was added to dissolve the formazan crystals. Cell viability was determined by measuring the absorbance by using an accuSkan™ GO UV/Vis Microplate Spectrophotometer (Fisher Sci., Fair Lawn, NJ, USA) at a wavelength of 570 nm.
(In general: Tetrazolium dyes change colour on reduction, which living cells bring about.)

Data set [2] deals with BCRP-mediated MDR cell line H460/MX20. The data set is described as follows: MTT reversal assay with mitoxantrone, BCRP-overexpressing H460/MX20 cells. It is filed as cell-based. The note with it: Homo sapiens, NCI-H460/MX20, H460/MX20, mitoxantrone alone, read-out: IC50 ± SD of mitoxantrone. How it is done:
as §1, §2

Data set [3] can be described thus: Metabolic stability with human liver microsomes. Further: tested at 200 µM. It is filed as in vitro ADME. The note with it: after 1 h of incubation with human liver microsomes, 37 °C, NADPH. How it is done:
Human liver microsome (20 mg/mL) 6.25 µL, nicotinamide adenine dinucleotide phosphate (NADPH) (0.75 µmol), MgCl2 (0.75 µmol), and the test compound (0.05 µmol) were added into a potassium phosphate buffer (pH 7.4) with 250 µL of final volume. The incubation was carried out aerobically at 37 °C. The mixture was pre-incubated without NADPH for 10 min at 37 °C and NADPH was added to start the reaction. At 1 h after the start of the reaction, an aliquot (50 µL) of the incubation mixture was taken from each incubation and mixed with 150 µL of ice-cold acetonitrile to terminate the reaction. Subsequently, the sample was centrifuged (12,000 rpm) at room temperature. The resulting supernatant was filtered and analyzed using HPLC (LC, Agilent 1200; column, HC-C18(2); column temperature, 25 °C; mobile phase, solvent A, methanol, solvent B, water; gradient elution, 30–99% solvent A; flow rate, 1 mL/min; UV signals were recorded at 254 nm).

The subject of a further data set is H460 cells. The data set is described as follows: [3H]-mitoxantrone accumulation assay, H460. It is filed as cell-based, human. The settings on record: parental H460 cells; compound 5 μM; Figure 6A. The method, then:
(§3) To determine the accumulation of drugs on H460, H460/MX20, KB-3-1, and KB-C2 cells, the cells ([…] cells/well) were seeded in the 24-well plates and incubated at 37 °C with 5% CO2 [17]. After 12 h of incubation, a test compound (5 µM) was added and the plates were incubated at 37 °C for 2 h. Cells were then incubated with 0.01 µM [^3H]-MX or [^3H]-paclitaxel-containing medium for an additional 2 h at 37 °C, with or without a test compound. The cells were washed twice with ice-cold phosphate-buffered saline (PBS), trypsinized and lysed at the end of incubation. The radioactivity was measured using the Packard TRICARB1 1900A liquid scintillation analyzer.

For data set [4], the system named is BCRP-overexpressing H460/MX20 cells. The data set is described as follows: [3H]-mitoxantrone accumulation assay, H460/MX20. It is filed as cell-based, human. How it is done:
as §3

The subject of data set [5] is BCRP protein in H460/MX20 cells. The data set is described as follows: Western blot of BCRP expression in H460/MX20 cells. The note with it: H460/MX20 total cell lysate; Figure 7. It is filed as cell-based, human. How it is done:
Cells in T25 flask were washed with ice-cold PBS. Lysis buffer (100 µL) was added into T25 flask. Using a cell scraper, scrape adherent cells were scraped off the flask and the cell suspension was transferred into a microcentrifuge tube (1.5 mL). Cells were agitated for 20 min at 4 °C and cell lysate was centrifuged mixture at 4 °C for 20 min at 12,000 rpm. The supernatant (lysate) was used for the gel electrophoresis. Equal amounts of total cell lysates (20 µg protein) were resolved by sodium dodecyl sulfate polyacrylamide gel electrophoresis (SDS-PAGE) and electrophoretically transferred onto polyvinylidene fluoride (PVDF) membranes. After incubation in a blocking solution (5% milk) for 2 h at room temperature, the membranes were incubated overnight with primary monoclonal antibodies against GAPDH (GA1R) (Invitrogen, Carlsbad, CA, USA) at 1:1000 dilution of BCRP protein (BXP 21) (Sigma-Aldrich, Inc., St. Louis, MO, USA) (1:1000) or P-gp (F4) (Sigma-Aldrich, Inc., St. Louis, MO, USA) at 4 °C, and were further incubated with horseradish […] (HRP)-conjugated secondary antibody (Thermo Fisher Scientific Inc., Waltham, MA, USA) at 1:1000 dilution for 2 h at room temperature. The protein antibody complex was detected using an enhanced chemiluminescence detection system. The grayscale ratio was analyzed by ImageJ and normalized by the grayscale of the ABC protein divided by that of GAPDH.
For orientation: Immunoblotting shows a protein as a band on a membrane.

The test system of data set [6] is BCRP localization in H460/MX20 cells. The data set is described as follows: Immunofluorescence assay of BCRP localization in H460/MX20 cells. It is filed as cell-based, human. The settings on record: 5 μM for 24, 48, and 72 h, Figure 8A,C. The method, then:
For immunofluorescence analysis, parental and drug-resistant cells were seeded in 24-well plates at 10,000–20,000 cells/well and incubated for 24 h. The cells were incubated with or without cyclopropyl quinazolinamine 22 or azide quinazolinamine 33 for 24 h, 48 h, and 72 h. Thereafter, cells were washed with PBS and fixed with 4% paraformaldehyde for 10 min at room temperature and then rinsed with PBS twice, followed by permeabilization with 1% Triton X-100 for 10 min at 4 °C. The cells were again washed twice with PBS, and then blocked with 6% BSA for 1 h at 37 °C. Fixed cells were incubated with monoclonal antibody against the BCRP protein (BXP 21) (Sigma-Aldrich, Inc., St. Louis, MO) (1:1000) or P-gp (F4) (Sigma-Aldrich, Inc., St. Louis, MO, USA) overnight at 4 °C, followed by two washes with PBS. The cells were then further incubated with Alexa flour 488 goat anti-mouse IgG (1:1000) (Abcam plc.) for 2 h at 37 °C. After the cells were washed twice with PBS, 4′,6-diamidino-2-phenylindole (DAPI) (2 µg/mL) was used for nuclear counterstaining. The immunofluorescence images were generated using a Nikon TE-2000S fluorescence microscope (Nikon Instruments Inc, Melville, NY, USA).

A further data set has as its target T1, BCRP ATPase (Homo sapiens, UniProt Q9UNQ0).
T1 construct: host or cells: High Five insect cells (membrane vesicles)
T1 sequence (Q9UNQ0 1-655): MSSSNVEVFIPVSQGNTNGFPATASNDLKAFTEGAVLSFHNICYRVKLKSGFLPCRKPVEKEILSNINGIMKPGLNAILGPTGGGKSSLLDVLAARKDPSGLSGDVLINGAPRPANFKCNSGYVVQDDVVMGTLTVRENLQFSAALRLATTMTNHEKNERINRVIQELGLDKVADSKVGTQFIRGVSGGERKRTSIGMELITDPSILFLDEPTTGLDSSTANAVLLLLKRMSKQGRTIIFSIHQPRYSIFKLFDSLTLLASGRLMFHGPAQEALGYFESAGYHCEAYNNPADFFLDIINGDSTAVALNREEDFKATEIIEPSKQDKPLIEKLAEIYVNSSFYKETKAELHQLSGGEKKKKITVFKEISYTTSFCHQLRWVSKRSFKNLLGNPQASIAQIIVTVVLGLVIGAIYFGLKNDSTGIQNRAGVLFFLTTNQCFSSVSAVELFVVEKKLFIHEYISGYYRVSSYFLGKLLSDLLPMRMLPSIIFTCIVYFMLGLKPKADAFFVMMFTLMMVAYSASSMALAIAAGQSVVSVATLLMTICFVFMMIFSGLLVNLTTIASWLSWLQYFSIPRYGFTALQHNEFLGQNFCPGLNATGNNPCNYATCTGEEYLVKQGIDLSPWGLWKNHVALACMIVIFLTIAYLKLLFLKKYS
The data set is described as follows: Vanadate-sensitive BCRP ATPase assay. It is filed as biochemical. The settings on record: membrane vesicles of High Five insect cells; Figure 10A,B. The method, then: The vanadate (Vi)-sensitive ATPase activity of BCRP and P-gp in the membrane vesicles of High Five insect cells was measured as described previously. The results were presented as vanadate-sensitive ATPase activities by determining the difference in inorganic phosphate liberation measured in the presence and absence of sodium orthovanadate.

In data set [7] the test system is P-gp-mediated multidrug-resistant cell line KB-C2. The data set is described as follows: cells. The settings on record: Homo sapiens, KB-C2, read-out: IC50 value of colchicine. How it is done: as §1, §2

The structures appear in SMILES notation. Where “and” joins values, the source holds several entries; their conditions need not be identical. Equal entries are not always repeated. Where two headings read alike, the source gives them in different places.

In general, IC50 refers to the point on the concentration scale where inhibition reaches its midpoint. Turning to `O=C1c2c(O)ccc(O)c2C(=O)c2c(NCCNCCO)ccc(NCCNCCO)c21` [Mitoxantrone], the IC50 in data set [1] (Table 1 series) came to 0.072 ± 0.009 µM; in data set [1] (Table 2 series), 0.154 ± 0.051 µM; in data set [2] (Table 1 series), 5.66 ± 0.29 µM; in [2] (Table 2 series) it was 6.5 ± 0.14 µM.

Regarding `COc1ccc(Nc2nc(-c3ccncc3)nc3ccccc23)cc1` [Compound 27, N-(4-Methoxyphenyl)-2-(pyridin-4-yl)quinazolin-4-amine], the “Metabolic Stability, % compound remaining” value in data set [3] turned out to be 83 ± 1%.

As a reminder, the melting point is the temperature of the solid-liquid transition. With `CCCc1ccc(Nc2nc(-c3ccncc3)nc3ccccc23)cc1` [Compound 5, N-(4-Propylphenyl)-2-(pyridin-4-yl)quinazolin-4-amine], the melting point lay within 212 to 214 °C. In data set [3], the “Metabolic Stability, % compound remaining” value is 80 ± 5%.

Turning to `CCc1ccc(Nc2nc(-c3ccncc3)nc3ccccc23)cc1` [Compound 4, N-(4-Ethylphenyl)-2-(pyridin-4-yl)quinazolin-4-amine], the melting point is 228 to 230 °C. For the same compound, the “Metabolic Stability, % compound remaining” value in data set [3] is given as 87 ± 12%.

`CC(C)c1ccc(Nc2nc(-c3ccncc3)nc3ccccc23)cc1` [Compound 23, N-(4-Isopropylphenyl)-2-(pyridin-4-yl)quinazolin-4-amine]: the “Metabolic Stability, % compound remaining” value in data set [3] is on record as 75 ± 6%.

Consider `[N-]=[N+]=Nc1ccc(Nc2nc(-c3ccncc3)nc3ccccc23)cc1` [Compound 33, N-(4-Azidophenyl)-2-(pyridin-4-yl)quinazolin-4-amine], for which the “Metabolic Stability, % compound remaining” value in data set [3] turned out to be 86 ± 11%. The accumulation of mitoxantrone result in the data set with H460 cells was “slightly increase”; in [4] (resistant H460/MX20 cells, compound 5 μM, Figure 6A), “increased the accumulation”. The “accumulation of mitoxantrone after UV light activation” value in [4] (H460/MX20, compound followed by UV light activation) is given as “increased compared to the group without activation”. Moreover, the “expression level of BCRP protein” value in data set [5] is on record as “not altered”. For the same compound, the “BCRP fluorescence on the membranes / intracellular localization of BCRP” value in [6] is given as “did not change the intracellular localization”. For the same compound, the “effect on Vi-sensitive BCRP ATPase activity (ATP hydrolysis)” value at BCRP ATPase is “significantly stimulated”.

On to `CCc1cccc(Nc2nc(-c3ccncc3)nc3ccccc23)c1` [Compound 24, N-(3-Ethylphenyl)-2-(pyridin-4-yl)quinazolin-4-amine], for which the “Metabolic Stability, % compound remaining” value in [3] came out at 91 ± 3%.

Turning to `COc1ccc2c3c([nH]c2c1)[C@H](CC(C)C)N1C(=O)[C@H](CCC(=O)OC(C)(C)C)NC(=O)[C@@H]1C3` [Ko143, reference compound], the “Metabolic Stability, % compound remaining” value in [3] is 41% and 41 ± 7%.

For `COc1cc2c(c(OC)c1OC)-c1ccc(OC)c(=O)cc1[C@@H](NC(C)=O)CC2` [colchicine], the IC50 in [7] came out at 7.34 µM.

The record behind these values is publication PMC9953095, “Design, Synthesis and Biological Evaluation of Quinazolinamine Derivatives as Breast Cancer Resistance Protein and P-Glycoprotein Inhibitors with Improved Metabolic Stability” (Biomolecules, 2023).
